Calls of active or inactive are those of the source.
Experiments:
[1] = biological target: T1, Alkaline phosphatase, tissue-nonspecific isozyme (Homo sapiens, UniProt P05186); assay: inhibition of tissue-nonspecific alkaline phosphatase – biochemical, dose response (AID 488882); assay type: functional
T1 sequence (P05186 whole entry): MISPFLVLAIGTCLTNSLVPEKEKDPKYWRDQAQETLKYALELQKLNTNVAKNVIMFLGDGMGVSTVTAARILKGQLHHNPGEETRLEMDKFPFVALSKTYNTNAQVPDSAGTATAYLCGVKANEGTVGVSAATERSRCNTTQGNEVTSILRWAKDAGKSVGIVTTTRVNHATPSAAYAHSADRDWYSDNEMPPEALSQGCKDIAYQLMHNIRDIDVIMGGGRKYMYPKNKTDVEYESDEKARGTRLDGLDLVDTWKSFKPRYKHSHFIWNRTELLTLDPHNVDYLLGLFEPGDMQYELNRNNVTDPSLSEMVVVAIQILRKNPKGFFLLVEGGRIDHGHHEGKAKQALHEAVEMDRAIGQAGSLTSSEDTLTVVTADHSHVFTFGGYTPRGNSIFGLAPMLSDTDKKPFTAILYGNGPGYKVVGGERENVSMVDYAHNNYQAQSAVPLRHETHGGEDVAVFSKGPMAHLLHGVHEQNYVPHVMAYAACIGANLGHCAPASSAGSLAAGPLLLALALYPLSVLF

[2] = biological target: T2, Oxysterols receptor LXR-beta (Homo sapiens, UniProt P55055); assay type: functional, cell-based;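 note: Cell-based luminescence dose-response assay of agonist activity at LXR, run as a confirmatory counterscreen to a daf-12 agonist screen; HEK293 cells with Gal4-LXR fusion and GAL4-driven luciferase reporter; agonist potency from rising luciferase signal of a Gal4-LXR reporter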
T2 sequence (P55055 whole entry): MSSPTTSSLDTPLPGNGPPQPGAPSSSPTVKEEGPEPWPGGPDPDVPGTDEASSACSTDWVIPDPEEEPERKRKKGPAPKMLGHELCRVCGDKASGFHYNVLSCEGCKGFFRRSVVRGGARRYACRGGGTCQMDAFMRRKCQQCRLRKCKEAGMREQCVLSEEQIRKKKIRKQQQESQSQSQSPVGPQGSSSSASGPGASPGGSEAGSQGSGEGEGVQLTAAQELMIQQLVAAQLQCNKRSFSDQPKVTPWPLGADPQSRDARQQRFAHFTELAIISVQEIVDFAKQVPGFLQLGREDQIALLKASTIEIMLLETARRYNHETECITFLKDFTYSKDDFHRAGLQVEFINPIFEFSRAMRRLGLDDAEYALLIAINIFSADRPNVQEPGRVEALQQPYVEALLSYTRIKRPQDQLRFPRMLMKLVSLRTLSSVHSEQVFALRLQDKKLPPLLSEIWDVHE

[3] = biological target: Intestinal-type alkaline phosphatase (Mus musculus, UniProt P24822); assay: PubChem AID 488874; assay type: functional
Intestinal-type alkaline phosphatase (Mus musculus, UniProt P24822), sequence (P24822 whole entry): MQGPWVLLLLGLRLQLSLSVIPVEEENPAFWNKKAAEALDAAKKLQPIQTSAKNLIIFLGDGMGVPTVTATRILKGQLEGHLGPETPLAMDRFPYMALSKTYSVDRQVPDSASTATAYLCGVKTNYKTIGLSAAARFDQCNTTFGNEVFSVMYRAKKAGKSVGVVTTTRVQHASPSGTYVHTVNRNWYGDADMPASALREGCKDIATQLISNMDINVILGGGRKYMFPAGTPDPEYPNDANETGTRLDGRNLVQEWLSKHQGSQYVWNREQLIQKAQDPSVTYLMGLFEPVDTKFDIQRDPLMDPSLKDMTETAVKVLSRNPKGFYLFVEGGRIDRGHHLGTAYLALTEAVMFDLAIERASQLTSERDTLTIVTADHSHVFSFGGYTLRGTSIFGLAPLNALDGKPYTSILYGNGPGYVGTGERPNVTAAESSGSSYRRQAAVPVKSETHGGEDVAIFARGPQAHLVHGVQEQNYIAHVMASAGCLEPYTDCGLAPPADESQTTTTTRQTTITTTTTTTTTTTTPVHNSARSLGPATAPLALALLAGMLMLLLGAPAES

[4] = biological target: T3, Intestinal-type alkaline phosphatase (Homo sapiens, UniProt P09923); assay: Dose Response confirmation of uHTS hits from a small molecule inhibitors of human intestinal alkaline phosphatase via a luminescent assay. [Related pubchem assays (depositor defined):AID2544, AID2574]; assay type: functional
T3 sequence (P09923 whole entry): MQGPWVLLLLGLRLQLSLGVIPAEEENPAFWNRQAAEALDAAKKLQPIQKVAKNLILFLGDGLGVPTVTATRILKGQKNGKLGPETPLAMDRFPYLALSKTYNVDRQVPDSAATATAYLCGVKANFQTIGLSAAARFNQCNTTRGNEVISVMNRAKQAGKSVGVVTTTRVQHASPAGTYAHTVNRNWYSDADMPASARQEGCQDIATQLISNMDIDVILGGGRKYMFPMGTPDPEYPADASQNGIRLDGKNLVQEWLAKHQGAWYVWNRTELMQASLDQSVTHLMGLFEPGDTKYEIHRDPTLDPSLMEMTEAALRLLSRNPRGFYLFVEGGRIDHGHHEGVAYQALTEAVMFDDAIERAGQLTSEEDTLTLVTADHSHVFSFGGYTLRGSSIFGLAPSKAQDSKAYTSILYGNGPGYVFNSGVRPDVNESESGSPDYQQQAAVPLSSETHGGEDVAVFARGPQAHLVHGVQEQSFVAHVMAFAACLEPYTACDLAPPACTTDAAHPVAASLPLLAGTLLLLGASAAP

[5] = biological target: T3, Intestinal-type alkaline phosphatase; assay: human IAP inhibitors, dose response, biochemical, luminescent, uHTS hits, set 2 (AID 488793); assay type: functional
Nonstructural protein 1 = Nonstructural protein 1 (Influenza A virus, UniProt Q194T2); assay type: functional, Influenza A virus (A/California/07/2009(H1N1))
Nonstructural protein 1, sequence (Q194T2 whole entry): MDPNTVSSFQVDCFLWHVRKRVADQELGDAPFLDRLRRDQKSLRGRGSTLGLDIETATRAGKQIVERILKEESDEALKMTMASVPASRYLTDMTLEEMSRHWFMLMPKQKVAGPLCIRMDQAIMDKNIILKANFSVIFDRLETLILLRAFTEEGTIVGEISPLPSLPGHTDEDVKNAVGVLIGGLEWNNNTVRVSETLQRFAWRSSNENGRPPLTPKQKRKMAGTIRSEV

A-375 [6] = assay: MITF: Counter assay: A375 proliferation Measured in Cell-Based System Using Plate Reader - 2084-03_Inhibitor_Dose_DryPowder_Activity. [Related pubchem assays (depositor defined):AID488944]; assay type: functional; conditions: Homo sapiens
[7] = growth suppression of beta-catenin-knockout colon cells, dose response, cell-based, HCT116, human colon tumor (AID 1045); assay type: functional;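 note: HCT116 colon tumor cells with beta catenin knocked out; cells exposed to compound for 60 hours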
A-375 [8] = assay: A375 melanoma cell viability reduction, dose response, counter-screen for MITF modulator project, cherry-pick samples, set 2 (AID 540335); assay type: functional, cell-based; conditions: Homo sapiens
[9] = growth suppression of PTEN-null colon cells, dose response, cell-based, HCT116 PTEN knockout (AID 1047); assay type: functional;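 note: HCT116 colon tumor cells with PTEN knocked out; cells exposed to compound for 60 hours before readout; potency for loss of cell viability measured by luminescence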
Cytochrome P450 1A2 = biological target: T4, Cytochrome P450 1A2 (Homo sapiens, UniProt P05177);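 note: PubChem cytochrome P450 panel assay, CYP1A2 panel member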
T4 sequence (P05177 whole entry): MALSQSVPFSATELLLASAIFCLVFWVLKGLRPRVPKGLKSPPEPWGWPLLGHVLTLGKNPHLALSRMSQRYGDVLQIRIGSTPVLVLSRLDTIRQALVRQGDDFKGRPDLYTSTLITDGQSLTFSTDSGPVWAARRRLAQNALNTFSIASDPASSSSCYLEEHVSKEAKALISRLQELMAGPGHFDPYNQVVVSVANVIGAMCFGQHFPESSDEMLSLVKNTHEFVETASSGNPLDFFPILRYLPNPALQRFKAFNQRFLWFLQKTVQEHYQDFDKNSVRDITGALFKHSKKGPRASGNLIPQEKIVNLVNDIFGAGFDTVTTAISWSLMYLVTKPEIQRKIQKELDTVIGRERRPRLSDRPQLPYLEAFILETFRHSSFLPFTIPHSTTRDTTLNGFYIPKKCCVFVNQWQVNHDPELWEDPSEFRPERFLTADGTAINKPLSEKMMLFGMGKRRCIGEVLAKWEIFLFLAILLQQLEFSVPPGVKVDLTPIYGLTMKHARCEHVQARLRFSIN

Cytochrome P450 2C9 = Cytochrome P450 2C9 (Homo sapiens, UniProt P11712)
Cytochrome P450 2C9, sequence (P11712 whole entry): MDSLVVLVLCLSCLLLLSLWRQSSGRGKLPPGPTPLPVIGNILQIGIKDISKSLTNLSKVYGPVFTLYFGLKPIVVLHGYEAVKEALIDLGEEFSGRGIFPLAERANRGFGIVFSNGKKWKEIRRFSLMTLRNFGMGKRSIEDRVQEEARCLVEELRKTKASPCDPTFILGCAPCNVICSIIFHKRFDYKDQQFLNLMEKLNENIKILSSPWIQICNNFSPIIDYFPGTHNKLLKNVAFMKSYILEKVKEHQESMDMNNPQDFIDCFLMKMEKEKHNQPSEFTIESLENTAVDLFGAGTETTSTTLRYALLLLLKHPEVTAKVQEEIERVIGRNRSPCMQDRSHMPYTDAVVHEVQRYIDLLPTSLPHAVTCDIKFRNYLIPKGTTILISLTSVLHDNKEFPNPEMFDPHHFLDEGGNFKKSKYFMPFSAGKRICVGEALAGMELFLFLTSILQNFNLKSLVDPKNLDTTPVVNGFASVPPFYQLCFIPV

Cytochrome P450 2C19 = Cytochrome P450 2C19 (Homo sapiens, UniProt P33261); assay: Cytochrome panel assay with activity outcomes. Panel member name: p450-cyp2c19 Compounds with AC50 equal or less than 10 uM are considered active; assay type: functional
Cytochrome P450 2C19, sequence (P33261 whole entry): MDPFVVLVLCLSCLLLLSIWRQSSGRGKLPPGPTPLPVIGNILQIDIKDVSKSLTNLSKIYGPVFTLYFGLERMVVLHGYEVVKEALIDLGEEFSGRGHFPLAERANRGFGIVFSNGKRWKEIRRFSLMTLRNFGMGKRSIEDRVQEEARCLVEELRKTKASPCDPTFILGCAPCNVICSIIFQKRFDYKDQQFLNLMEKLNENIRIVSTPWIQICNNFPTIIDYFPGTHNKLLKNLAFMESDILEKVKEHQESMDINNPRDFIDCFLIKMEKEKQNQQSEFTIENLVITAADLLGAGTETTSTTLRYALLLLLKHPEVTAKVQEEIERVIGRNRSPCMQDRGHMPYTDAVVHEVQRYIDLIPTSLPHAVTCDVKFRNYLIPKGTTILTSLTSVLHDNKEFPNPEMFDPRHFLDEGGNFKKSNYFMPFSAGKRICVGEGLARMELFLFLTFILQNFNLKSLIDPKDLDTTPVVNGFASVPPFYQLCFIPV

CN(C)c1ccc(N=Nc2ccccc2Br)cc1
IC50 [1]: 38.2 µM (active)
EC50 (cells): > 67.5 µM (inactive)
EC50 [2]: > 67.5 µM (inactive)
IC50 [3]: 36 µM (active)
IC50 [4]: 28.1 µM (inactive)
IC50 [5]: 30.9 µM (active)
IC50 (Nonstructural protein 1): 17.2 µM (active)

CN(C)CCNC(=O)/C(=C/c1ccc(-c2ccc(Cl)cc2)o1)NC(=O)c1ccccc1
AC50 (A-375 [6]): > 11 µM (active)
EC50 [7]: 9.77 µM (active)
AC50 (A-375 [8]): > 11 µM (active)
EC50 [9]: 10.9 µM (active)

Cc1noc(C)c1C(=O)N1CCC2(CCCN(C(=O)NC(C)C)C2)CC1
AC50 (Cytochrome P450 1A2): inconclusive
AC50 (Cytochrome P450 2C9): inconclusive
AC50 (Cytochrome P450 2C19): inconclusive

Source: ChEMBL document CHEMBL1201862, “PubChem BioAssay data set” (2004)
